From patent publication US20110206779A1, “GASTRIC ULCER THERAPEUTIC AGENT” (priority 2010, published 2011)

Tests used:
[1] = Measurement of adsorption amount of naphthol yellow S; format: physicochemical; conditions: 1.0 g powder in 500 mL NYS aqueous solution 100 ppm, 30° C., 1 hour
Experimental: [Measurement of Adsorption Amount of Naphthol Yellow S]
1.0 g of a powder sample was added to 500 mL of an aqueous solution of naphthol yellow S (NYS) (concentration 100 ppm). The mixture was stirred at 30° C. for 1 hour and then filtered to obtain a filtrate. The concentration of NYS in the filtrate was measured with a spectrophotometer and the adsorption amount of the sample was obtained.

[2] = Antacid power, measured according to the pharmacopoeia of Japan; format: physicochemical
[3] = tested on: water immersion restraint stress ulcer; assay: Influence on rat water immersion restraint stress ulcer; format: in vivo, Wister rats; conditions: oral, 30 minutes before stress, 7 hours stress; for Length of gastric mucosa impairment: control 14.7 mm
Description: [Influence on Rat Water Immersion Restraint Stress Ulcer]
The powders obtained in Examples 1, 2 and 3, a mixed powder containing the powder obtained in Example 2 and basic zinc carbonate (Zn=58%), the powders obtained in Comparative Examples 1 and 2, lansoprazole as a proton pump inhibitor and sucralfate, which is most highly evaluated as a gastric mucosa protective agent, were used as test specimens. These test specimens were examined for effect on water immersion restraint stress ulcer, which is an acute ulcer model.
Eight Wister rats as a group were preliminarily reared for a few days. The rats were fasted for 24 hours. Then, the rats were placed in a stress cage according to the method of Takagi et al. (Jap, J, Pharacol, 18:9, 1968). The rats were immersed up to xiphoid process parts in a water tank having a temperature of 23° C. and the rats were subjected to stress for 7 hours. Then, their stomachs were taken out under ether anesthesia. About 12 mL of 2% formalin physiological saline solution was injected into each stomach, to fix the stomach. Then, each stomach was cut out along a curvatura ventriculi major side. The length (mm) of mucosa ulcer at a glandular stomach portion was measured.
As to oral administration of the test specimens, 5 mL/kg (rat weight) of a liquid containing a test specimen was administered 30 minutes before the load of the stress. In Control, the same amount of water was administered.

| NYS adsorption amount [1] [mg/g] | Antacid power [2] [mL/g] | Compound | Inhibition rate ([3]; dosage 40 mg/kg) [%] | Length of gastric mucosa impairment ([3]; dosage 40 mg/kg) [mm] | Inhibition rate ([3]; dosage 500 mg/kg) [%] | Length of gastric mucosa impairment ([3]; dosage 500 mg/kg) [mm] |
| --- | --- | --- | --- | --- | --- | --- |
| 0 | 0 | Cc1c(OCC(F)(F)F)ccnc1C[S+]([O-])c1nc2ccccc2[nH]1 (centres unmarked) [Lansoprazole, lansoprazole] | 78 | 3.2 | – | – |
| 0.60 | 168 | sucralfate | – | – | 71 | 4.3 |
